Biological target: T1, Human soluble guanylate cyclase enzyme (hsGC) (Homo sapiens, UniProt Q02108+Q02153)
T1 construct: purchased Enzo Inc. ALX-201-177
T1 sequence (Q02153 1-619): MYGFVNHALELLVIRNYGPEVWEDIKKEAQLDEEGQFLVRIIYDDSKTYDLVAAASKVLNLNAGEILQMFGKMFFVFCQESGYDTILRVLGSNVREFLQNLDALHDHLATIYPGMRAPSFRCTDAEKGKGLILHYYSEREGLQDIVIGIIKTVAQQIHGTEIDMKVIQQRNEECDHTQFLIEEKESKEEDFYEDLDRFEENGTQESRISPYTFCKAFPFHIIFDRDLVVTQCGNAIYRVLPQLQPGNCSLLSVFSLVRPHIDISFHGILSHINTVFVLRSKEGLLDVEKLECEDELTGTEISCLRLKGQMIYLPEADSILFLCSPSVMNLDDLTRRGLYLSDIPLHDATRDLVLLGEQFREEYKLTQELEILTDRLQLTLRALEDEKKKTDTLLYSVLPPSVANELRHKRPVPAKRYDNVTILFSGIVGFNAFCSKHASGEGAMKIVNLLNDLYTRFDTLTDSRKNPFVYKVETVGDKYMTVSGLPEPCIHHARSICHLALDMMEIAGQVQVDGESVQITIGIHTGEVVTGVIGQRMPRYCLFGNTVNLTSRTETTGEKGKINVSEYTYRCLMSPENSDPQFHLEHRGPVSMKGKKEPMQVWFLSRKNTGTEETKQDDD
T1 sequence (Q02108 1-690): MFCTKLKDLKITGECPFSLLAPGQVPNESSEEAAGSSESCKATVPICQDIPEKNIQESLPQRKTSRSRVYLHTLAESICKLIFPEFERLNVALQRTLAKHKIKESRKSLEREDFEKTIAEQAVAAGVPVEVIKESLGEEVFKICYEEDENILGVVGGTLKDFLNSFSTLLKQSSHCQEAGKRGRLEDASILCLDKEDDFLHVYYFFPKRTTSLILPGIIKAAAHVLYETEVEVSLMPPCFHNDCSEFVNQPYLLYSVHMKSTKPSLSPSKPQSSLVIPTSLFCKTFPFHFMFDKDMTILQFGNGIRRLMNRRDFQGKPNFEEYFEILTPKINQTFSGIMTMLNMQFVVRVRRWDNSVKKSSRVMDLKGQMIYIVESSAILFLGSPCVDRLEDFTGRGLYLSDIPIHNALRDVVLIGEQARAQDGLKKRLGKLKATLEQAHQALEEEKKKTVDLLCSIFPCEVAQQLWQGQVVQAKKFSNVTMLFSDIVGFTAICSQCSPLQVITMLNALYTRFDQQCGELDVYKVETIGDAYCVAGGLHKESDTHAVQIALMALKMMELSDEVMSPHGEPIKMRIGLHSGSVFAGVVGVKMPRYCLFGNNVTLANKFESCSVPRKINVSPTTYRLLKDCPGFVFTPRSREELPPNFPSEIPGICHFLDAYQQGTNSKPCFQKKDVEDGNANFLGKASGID
Assay: Purified human sGC enzyme synergy assay in the presence of sodium nitroprusside (SNP)
Assay type: biochemical
Settings: 30 μM compound, 1 μM SNP; fold change of specific activity vs DMSO control
Experimental: Human soluble guanylate cyclase enzyme (hsGC) obtained from Enzo Inc. (P/N: ALX-201-177) was used to evaluate the activity of test compounds. The assay reactions contained 0.1 M Tris (pH 8.0), 0.5 mg/mL BSA (pH 8.0), 2 mM DTT, 2 mM MgCl2, 300 μM GTP, 1 mM 3-isobutyl-1-methylxanthine (IBMX) and 5 ng human soluble guanylate cyclase enzyme. Test compounds in DMSO were then added (2 μL, 10 or 30 μM final concentration) and incubated (water, 200 μL, 96-well plate format) at 37° C. for 30 minutes. The controls were carried out using 2 μL DMSO. After the 30 minute incubation, the reaction was stopped with the addition of 200 μL of cold methanol. The plate was then centrifuged at 3,200 rpm for 10 minutes at room temperature. Supernatants (200 μL) were collected and transferred to a new 96 well plate for analysis by HPLC LC/MS/MS.
An 8 point cGMP (Sigma-Aldrich P/N: G6129) standard curve was prepared in assay buffer ranging from 0.156-20 μM. Samples for the cGMP standard curve were then diluted with an equal volume of methanol resulting in final cGMP concentrations of 0.078-10 μM.
The cGMP standard curve was generated using GraphPad Prism Software.
Calculations: Specific Activity was determined by the amount of cGMP formed (nmoles) per mg of sGC per min. Enzyme “fold-change” was calculated by dividing Specific Activity for test compounds by Specific Activity of DMSO controls. […]

SMILES: Nc1ccnc(-n2cc(-c3ncco3)c(Cc3ccccc3F)n2)n1 [Compound I-2]
- Enzyme Activity (increase at 30 μM with SNP): D (D = 10 or <20 fold increase)

Reference: patent publication US9487508B2, “SGC stimulators” (IRONWOOD PHARMACEUTICALS, INC., priority 2012, dated 2016)
